According to ChEMBL document CHEMBL1909046, “DrugMatrix in vitro pharmacology data”:

Legend:
[1] = target: T1, 5-hydroxytryptamine receptor 2C (Homo sapiens, UniProt P28335); assay: DRUGMATRIX: Serotonin (5-Hydroxytryptamine) 5-HT2C radioligand binding (ligand: [3H] Mesulergine); type: cell membranes, CHO-K1, Membrane; conditions: cho-k1; Not Active = under 50% inhibition at 10 µM
T1 sequence (P28335 whole entry): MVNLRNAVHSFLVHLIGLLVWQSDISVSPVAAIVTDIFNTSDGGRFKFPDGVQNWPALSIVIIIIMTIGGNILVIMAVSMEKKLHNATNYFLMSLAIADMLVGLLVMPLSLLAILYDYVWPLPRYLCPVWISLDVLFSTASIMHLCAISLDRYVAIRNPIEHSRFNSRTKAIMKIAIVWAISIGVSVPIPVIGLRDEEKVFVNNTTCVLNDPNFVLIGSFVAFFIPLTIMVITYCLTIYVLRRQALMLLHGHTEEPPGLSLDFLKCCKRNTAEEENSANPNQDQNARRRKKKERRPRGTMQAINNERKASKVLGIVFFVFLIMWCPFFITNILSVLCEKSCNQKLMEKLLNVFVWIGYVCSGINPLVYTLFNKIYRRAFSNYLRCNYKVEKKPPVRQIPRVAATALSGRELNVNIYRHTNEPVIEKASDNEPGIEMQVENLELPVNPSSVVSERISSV

[2] = target: T2, Polyunsaturated fatty acid lipoxygenase ALOX15 (Oryctolagus cuniculus, UniProt P12530); assay: biochemical; type: tissue-based, Reticulocytes; conditions: reticulocytes;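 also: inhibition of 15-lipoxygenase enzyme activity measured with linoleic acid as the substrate; in other assays of this panel Not Active means under 50% inhibition at 10 µM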
T2 sequence (P12530 whole entry): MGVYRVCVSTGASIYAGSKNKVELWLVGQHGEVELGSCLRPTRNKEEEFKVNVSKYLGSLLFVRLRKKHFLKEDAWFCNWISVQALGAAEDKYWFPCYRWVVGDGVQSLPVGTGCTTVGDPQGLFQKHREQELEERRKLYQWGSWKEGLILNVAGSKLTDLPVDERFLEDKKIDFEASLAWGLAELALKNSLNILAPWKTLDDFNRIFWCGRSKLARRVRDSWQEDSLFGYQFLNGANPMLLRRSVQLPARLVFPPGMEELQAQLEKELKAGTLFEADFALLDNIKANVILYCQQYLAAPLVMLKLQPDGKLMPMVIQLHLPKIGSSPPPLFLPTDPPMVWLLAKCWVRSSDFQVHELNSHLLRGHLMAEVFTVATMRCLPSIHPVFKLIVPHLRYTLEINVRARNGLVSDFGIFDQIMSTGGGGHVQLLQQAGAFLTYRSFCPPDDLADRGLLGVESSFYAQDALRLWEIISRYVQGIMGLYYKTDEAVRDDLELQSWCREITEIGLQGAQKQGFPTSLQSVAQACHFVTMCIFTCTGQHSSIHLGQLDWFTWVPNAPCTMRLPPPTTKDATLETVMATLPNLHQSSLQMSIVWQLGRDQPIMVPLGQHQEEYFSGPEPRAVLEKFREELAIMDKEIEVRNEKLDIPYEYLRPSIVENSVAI

Estrogen receptor = target: T3, Estrogen receptor (Homo sapiens, UniProt P03372); conditions: sf9; also: in other assays of this panel Not Active means under 50% inhibition at 10 µM
T3 sequence (P03372 whole entry): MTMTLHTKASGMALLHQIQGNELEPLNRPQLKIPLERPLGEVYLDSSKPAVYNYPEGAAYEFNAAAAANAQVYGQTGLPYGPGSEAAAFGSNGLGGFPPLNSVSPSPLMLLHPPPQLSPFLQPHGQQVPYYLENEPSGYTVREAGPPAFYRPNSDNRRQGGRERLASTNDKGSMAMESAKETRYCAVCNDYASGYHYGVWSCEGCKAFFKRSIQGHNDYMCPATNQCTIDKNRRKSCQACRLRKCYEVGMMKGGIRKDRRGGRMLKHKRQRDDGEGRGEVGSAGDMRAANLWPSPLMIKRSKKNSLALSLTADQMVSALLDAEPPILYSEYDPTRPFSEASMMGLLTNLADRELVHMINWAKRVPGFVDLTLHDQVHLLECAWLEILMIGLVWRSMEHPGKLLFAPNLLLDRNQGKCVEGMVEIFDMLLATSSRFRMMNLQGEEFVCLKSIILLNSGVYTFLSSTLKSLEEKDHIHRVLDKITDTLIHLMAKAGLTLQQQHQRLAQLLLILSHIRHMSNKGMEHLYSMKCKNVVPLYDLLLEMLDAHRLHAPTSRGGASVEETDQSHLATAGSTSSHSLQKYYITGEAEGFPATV

[3] = target: Sodium-dependent dopamine transporter (Homo sapiens, UniProt Q01959); assay: DRUGMATRIX: Dopamine Transporter radioligand binding (ligand: [125I] RTI-55); type: cell membranes, CHO-K1, Membrane; conditions: cho-k1; Not Active = under 50% inhibition at 10 µM
Androgen receptor = target: T4, Androgen receptor (Rattus norvegicus, UniProt P15207); also: in other assays of this panel Not Active means under 50% inhibition at 10 µM
T4 sequence (P15207 whole entry): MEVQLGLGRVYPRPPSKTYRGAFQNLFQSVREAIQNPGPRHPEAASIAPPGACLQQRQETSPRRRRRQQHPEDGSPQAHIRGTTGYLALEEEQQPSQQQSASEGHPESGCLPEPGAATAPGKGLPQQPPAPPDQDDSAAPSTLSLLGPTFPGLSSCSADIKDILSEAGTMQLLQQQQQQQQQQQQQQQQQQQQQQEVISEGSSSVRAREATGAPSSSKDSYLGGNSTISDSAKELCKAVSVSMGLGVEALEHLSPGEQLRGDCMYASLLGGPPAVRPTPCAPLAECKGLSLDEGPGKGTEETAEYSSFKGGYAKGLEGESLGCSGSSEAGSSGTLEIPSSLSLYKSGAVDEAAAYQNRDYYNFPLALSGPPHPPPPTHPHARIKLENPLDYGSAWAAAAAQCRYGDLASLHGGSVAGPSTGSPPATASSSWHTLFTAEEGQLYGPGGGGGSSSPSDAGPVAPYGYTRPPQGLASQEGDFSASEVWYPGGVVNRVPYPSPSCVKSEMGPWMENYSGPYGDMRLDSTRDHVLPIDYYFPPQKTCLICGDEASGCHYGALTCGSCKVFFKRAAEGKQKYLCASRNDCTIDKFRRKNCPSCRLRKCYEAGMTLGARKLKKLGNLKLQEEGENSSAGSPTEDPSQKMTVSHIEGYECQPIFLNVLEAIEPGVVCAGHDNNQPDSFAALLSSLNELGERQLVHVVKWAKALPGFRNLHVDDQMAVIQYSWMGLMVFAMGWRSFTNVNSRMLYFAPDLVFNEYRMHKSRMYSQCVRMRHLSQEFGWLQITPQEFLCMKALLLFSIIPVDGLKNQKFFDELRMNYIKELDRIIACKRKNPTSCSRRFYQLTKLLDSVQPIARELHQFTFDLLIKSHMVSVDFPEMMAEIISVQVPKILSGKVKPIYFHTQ

Measured: IC50

Sodium-dependent dopamine transporter, sequence (Q01959 whole entry): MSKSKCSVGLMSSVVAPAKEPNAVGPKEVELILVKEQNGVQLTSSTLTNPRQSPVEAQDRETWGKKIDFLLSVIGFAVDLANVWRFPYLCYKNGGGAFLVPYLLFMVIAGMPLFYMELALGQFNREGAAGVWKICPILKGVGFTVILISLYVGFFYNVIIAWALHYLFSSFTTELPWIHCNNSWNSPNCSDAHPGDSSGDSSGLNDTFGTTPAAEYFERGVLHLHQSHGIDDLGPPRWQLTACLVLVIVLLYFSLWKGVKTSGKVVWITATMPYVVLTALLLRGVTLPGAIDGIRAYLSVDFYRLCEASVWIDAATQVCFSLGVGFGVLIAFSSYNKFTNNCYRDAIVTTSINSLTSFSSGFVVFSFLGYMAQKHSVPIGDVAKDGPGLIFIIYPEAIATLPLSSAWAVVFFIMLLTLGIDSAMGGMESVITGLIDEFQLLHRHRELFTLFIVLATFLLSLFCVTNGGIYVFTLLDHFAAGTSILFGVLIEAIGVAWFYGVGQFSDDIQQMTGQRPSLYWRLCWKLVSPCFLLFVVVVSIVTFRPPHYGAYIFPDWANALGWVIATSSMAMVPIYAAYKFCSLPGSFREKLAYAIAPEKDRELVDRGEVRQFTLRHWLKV

CO[C@H]1/C=C/O[C@@]2(C)Oc3c(C)c(O)c4c(c3C2=O)C2=NC3(CCN(CC(C)C)CC3)NC2=C(NC(=O)/C(C)=C\C=C\[C@H](C)[C@H](O)[C@@H](C)[C@@H](O)[C@@H](C)[C@H](OC(C)=O)[C@@H]1C)C4=O [RIFABUTIN]
Not Active: all assays above

COc1cc(NS(=O)(=O)c2ccc(N)cc2)nc(OC)n1 [SULFADIMETHOXINE]
Not Active: all assays above

C[C@@H](N)[C@H]1CC[C@H](C(=O)Nc2ccncc2)CC1 [Y-27632]
Not Active: all assays above
